Reference: US20250179559A1, “DUAL-LUCIFERASE REPORTER GENE DETECTION SYSTEM, FLUORESCENCE DETECTION KIT, AND METHOD FOR DETECTING LUMINESCENT SIGNAL OF LUCIFERASE” (BGI SHENZHEN, priority 2022, published 2025)

Key:
[1] = system: wild-type Pleuromamma xiphias luciferase (WT-Pxluc); test: Luminescence intensity of substrates with wild-type Pleuromamma xiphias luciferase; type: biochemical; conditions: for Pxluc fluorescence intensity: luciferase 1 μg/mL (10 μL), substrate 10 μM (90 μL), microplate reader; for Pxluc relative intensity: percentage relative to wild-type Pleuromamma xiphias luciferase with compound N0, substrate 10 μM
Experimental: (§1) [drawing 6] • (3) According to the conventional methods, such as the method disclosed in PCT/CN2017/082180, an expression vector (plasmid) containing the wild-type Gaussia luciferase gene and the wild-type Pleuromamma xiphias luciferase gene was constructed. The plasmid was transformed into Escherichia coli OrigamiB (DE3), which was coated on a plate, and a single colony was picked from the plate, cultured overnight at 37° C., diluted at a ratio of 1:100 on the next day, transferred to 3 mL of fresh LB medium containing ampicillin resistance (100 μg/mL), cultured with shaking at 37° C. and 200 rpm for 4 hours, and cooled on ice for 1 hour. The inducer IPTG was added at a final concentration of 1 mM and the induction was preformed overnight at 16° C. On the next day, the bacteria were collected by centrifugation, resuspended with 500 μL lysate (50 mM Tris-HCl pH 8.0, 500 mM NaCl, 0.2% lysozyme, PMSF), lysed for 20 minutes at room temperature, frozen with liquid nitrogen and thawed for 3 times, and centrifuged for 30 minutes at 18,000 g. The supernatant was taken, which was purified by using a centrifugal Ni column. The protein eluted by Ni column was dialyzed with dialysis buffer (25 mM Tris, pH 8.0, 250 mM NaCl) at 4° C. overnight. The concentration of luciferase was accurately determined by using a BCA quantitative kit (Thermoscientific™ Pierce™ BCA protein assay kit). The two luciferases were diluted to a concentration of 1 μg/mL with a diluent (50 mM Tris-HCl pH 8.0, 100 mM NaCl, 0.1% (v/v) Tween-20), and 10 μL of each luciferase was taken and added to a black 96-well plate. The substrate was diluted to 10 μM with the same diluent, 90 μL of the substrate was taken add into the 96-well plate containing the above luciferases (90 μL/well), and the luminescence intensity was read by using a light-emitting module of a microplate reader. The test data of the Gaussia luciferase and the Pleuromamma xiphias luciferase on different substrates were shown in Table 1, in which the relative intensity is a percentage relative to the activity of wild-type Pleuromamma xiphias luciferase and compound N0. […] That is, in this dual-luciferase reporter gene detection system, the optimal luminescent combination with high fluorescence brightness and low cross-interference obtained after screening is using f-CTZ to detect the Gaussia luciferase, and using N0 to detect the Pleuromamma xiphias luciferase.

[2] = system: wild-type Gaussia luciferase (WT-Gluc); test: Luminescence intensity of substrates with wild-type Gaussia luciferase; type: biochemical, Gaussia princeps; conditions: for Gluc fluorescence intensity: luciferase 1 μg/mL (10 μL), substrate 10 μM (90 μL), microplate reader; for Gluc relative intensity: percentage relative to wild-type Pleuromamma xiphias luciferase with compound N0, substrate 10 μM
Experimental: as §1

[3] = system: Pleuromamma xiphias luciferase mutant P26-95; test: Luminescence intensity of substrates with Pleuromamma xiphias luciferase mutant P26-95; type: biochemical; conditions: mutant P26-95, among tested substrates
Experimental: (§2) The two luciferases were diluted to a concentration of 1 μg/mL with a diluent (50 mM Tris-HCl pH 8.0, 100 mM NaCl, 0.1% (v/v) Tween-20), and 10 μL of each luciferase was taken and added to a black 96-well plate. The substrate was diluted to 10 μM with the same diluent, 90 μL of the substrate was taken add into the 96-well plate containing the above luciferases (90 μL/well), and the luminescence intensity was read by using a light-emitting module of a microplate reader.
Mutant-Type Pleuromamma xiphias Luciferase P26-95: • d) P26-95: based on SEQ ID NO: 3, the following sites were mutated: G83A, and G84P.
(§3) According to the method as described in Example 1, an expression vector containing the gene of the Gaussia luciferase mutant and the gene of the Pleuromamma xiphias luciferase mutant was constructed, a recombinant strain was constructed, the mutant-type luciferases were expressed, and the luminous intensity of substrates and luciferases was detected.

[4] = system: Gaussia luciferase mutant G2-F8; test: Luminescence intensity of substrates with Gaussia luciferase mutant G2-F8; type: biochemical, Gaussia princeps; conditions: mutant G2-F8, among tested substrates
Experimental: as §2, §3

[5] = system: Gaussia luciferase mutant E1-A3; test: Luminescence intensity of substrates with Gaussia luciferase mutant E1-A3; type: biochemical, Gaussia princeps; conditions: mutant E1-A3, among tested substrates
Experimental: as §2, §3

[6] = system: Gaussia luciferase mutant G2-F11; test: Luminescence intensity of substrates with Gaussia luciferase mutant G2-F11; type: biochemical, Gaussia princeps; conditions: mutant G2-F11, among tested substrates
Experimental: as §2, §3

Compound	Pxluc fluorescence intensity [1]	Pxluc relative intensity [1]	Gluc fluorescence intensity [2]	Gluc relative intensity [2]	fluorescence intensity compared among substrates (in words) ([1]; wild-type Pleuromamma xiphias luciferase, among tested substrates)	fluorescence intensity compared among substrates (in words) [3]	fluorescence intensity compared among substrates (in words) [4]	fluorescence intensity compared among substrates (in words) [5]	fluorescence intensity compared among substrates (in words) ([2]; wild-type Gaussia luciferase, among tested substrates)	fluorescence intensity compared among substrates (in words) [6]
O=c1c(Cc2ccc(O)cc2)nc2c(Cc3ccccc3)[nH]c(-c3cccc(O)c3)cn1-2 [Substrate N0]	160037	100%	5338	3.3%	highest fluorescence intensity	highest fluorescence intensity	–	–	–	–
O=c1c(Cc2ccc(O)cc2)nc2c(Cc3ccccc3)[nH]c(Cc3ccccc3)cn1-2 [Substrate N1]	1173	0.7%	0	0.0%	–	–	–	–	–	–
O=c1c(Cc2ccc(F)cc2)nc2c(Cc3ccccc3)[nH]c(Cc3ccccc3)cn1-2 [Substrate N2]	3026	1.9%	0	0.0%	–	–	–	–	–	–
O=c1c(Cc2ccc(O)cc2)nc2c(Cc3ccccc3)[nH]c(/C=C/c3ccccc3)cn1-2 [Substrate N7]	4430	2.8%	135	0.1%	–	–	–	–	–	–
O=c1c(Cc2ccc(F)cc2)nc2c(Cc3ccccc3)[nH]c(/C=C/c3ccccc3)cn1-2 [Substrate N8]	1426	0.9%	12	0.0%	–	–	–	–	–	–
O=c1c(Cc2ccc(F)cc2)nc2c(Cc3ccccc3)[nH]c(-c3ccc(O)cc3)cn1-2 [f-CTZ]	69138	43.2%	10186.5	6.4%	–	–	highest fluorescence intensity	highest fluorescence intensity	highest fluorescence intensity	highest fluorescence intensity

Second part, led by results:

Pxluc fluorescence intensity [1]	Pxluc relative intensity [1]	Gluc fluorescence intensity [2]	Gluc relative intensity [2]	Compound	fluorescence intensity compared among substrates (in words) ([1]; wild-type Pleuromamma xiphias luciferase, among tested substrates)	fluorescence intensity compared among substrates (in words) [3]	fluorescence intensity compared among substrates (in words) [4]	fluorescence intensity compared among substrates (in words) [5]	fluorescence intensity compared among substrates (in words) ([2]; wild-type Gaussia luciferase, among tested substrates)	fluorescence intensity compared among substrates (in words) [6]
1520	0.9%	263	0.2%	CN(C)c1ccc(-c2cn3c(=O)c(Cc4ccc(O)cc4)nc-3c(Cc3ccccc3)[nH]2)cc1 [Substrate N3]	–	–	–	–	–	–
4137	2.6%	17	0.0%	CN(C)c1ccc(-c2cn3c(=O)c(Cc4ccc(F)cc4)nc-3c(Cc3ccccc3)[nH]2)cc1 [Substrate N4]	–	–	–	–	–	–
4430	2.8%	457	0.3%	Nc1ccc(-c2cn3c(=O)c(Cc4ccc(O)cc4)nc-3c(Cc3ccccc3)[nH]2)cc1 [Substrate N5]	–	–	–	–	–	–
3464	2.2%	15	0.0%	Nc1ccc(-c2cn3c(=O)c(Cc4ccc(F)cc4)nc-3c(Cc3ccccc3)[nH]2)cc1 [Substrate N6]	–	–	–	–	–	–
